Reference: the METLIN SMRT retention time set (Domingo-Almenara et al. 2019)

Assay: gradient 5% acetonitrile 3 min, to 50% in 2 min, to 85% in 15 min, held 3 min, 100 µL/min
Conditions: column: Zorbax Extend-C18 2.1 x 50 mm; eluents: water / acetonitrile, 0.1% formic acid
How it was run: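 The mobile phases were water and acetonitrile, each with 0.1% formic acid, pumped at 100 μL/min through a Zorbax Extend-C18 column (2.1 × 50 mm, 1.8 μm). Pure standards were injected as mixtures of ~100 molecules and detected by a quadrupole time-of-flight mass spectrometer in positive and negative ionization mode. Retention time came from computationally picked adduct peaks, each inspected by hand.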

Point of comparison: Cc1noc(C2(NC(=O)c3cc(F)cc(F)c3)CCCCC2)n1, RP-LC retention time 916 s. Against it:
- COc1ccc(NC(=O)Cn2cccc(-c3nc(-c4ccc(Br)cc4)no3)c2=O)cc1 — higher, 925 s
- CCC(=O)N1CCc2c(C(=O)NC3CC3)cccc21 — lower, 653 s
- CCn1nc(C)c(CCNC(=O)Cn2c3ccccc3c3cnn(C)c(=O)c32)c1C — lower, 627 s
- CCc1nnc(NC(=O)C2CCN(C(=O)c3ccc(F)cc3)CC2)s1 — lower, 679 s
- C=CCn1c(C)c(CC(=O)NCC2CCCO2)c(=O)n2nc(-c3ccccc3)nc12 (configuration not stated) — lower, 717 s
- C[C@@H](NC(=O)c1cccc(Br)c1)C(=O)NCc1cscn1 — lower, 665 s
- COc1c(C(=O)N2CCN(CC(C)C)CC2)sc2cc(Cl)ccc12 — lower, 697 s
- CCc1nc2c(c(=O)n1CC(=O)Nc1ccc(C)cc1)CN(Cc1ccccc1)CC2 — lower, 672 s
- O=C1COc2cc(S(=O)(=O)N3CCCC3C(=O)Nc3ccccc3)c(Cl)cc2N1 (configuration not stated) — lower, 768 s
- COc1ccc(N2CC(c3nc(-c4ccc(C(F)(F)F)cc4)no3)CC2=O)cc1OC (configuration not stated) — higher, 963 s
- COc1ccccc1NC(=O)C1CCN(S(=O)(=O)c2cc(C(=O)N3CCOCC3)cs2)CC1 — lower, 779 s
- Cc1nn2c(CNC(=O)c3n[nH]c4c3CCCC4)c(-c3ccccc3)nc2s1 — lower, 784 s
- O=C(c1noc2c1CCCCC2)N1CCN(Cc2ccc3c(c2)OCO3)CC1 — lower, 665 s
- COCCN1C(=O)c2ccccc2C(C(=O)NCCc2ccc(OC)cc2)C12CCCC2 (configuration not stated) — lower, 807 s
- Cc1cc(C)cc(S(=O)(=O)N2CCc3c(c(-c4nnc(-c5ccccc5)o4)nn3C)C2)c1 — higher, 1020 s
- O=C(NCc1cccnc1Oc1ccccc1)c1cnn2cccnc12 — lower, 695 s
- Cc1noc(CNC(=O)C2CCN(C(=O)Cc3ccccc3Cl)CC2)n1 — lower, 590 s
- CC1CN(C2CCCCC2)c2nc3c(c(=O)n(CCN4CCCCC4)c(=O)n3C)n2C1 (configuration not stated) — lower, 722 s
- COc1ccc(C(=O)N2CCN3CCS(=O)(=O)N(C4CC4)C(=O)C3C2)c(OC)c1 (configuration not stated) — lower, 711 s
- Cc1cccc(-c2nnc(-c3ccc(Cl)c(S(=O)(=O)N(C)C)c3)o2)c1 — higher, 1040 s
- CCn1nccc1-c1cccc(-c2noc(-c3ccc(C)s3)n2)c1 — higher, 1250 s
- Cc1cccc(NC(=O)C23CCC=C2N(C2CCCC2)C(=O)CC3)c1 (configuration not stated) — higher, 952 s
- Cc1cccc(-c2nc(Cn3nnc(-c4nc(-c5ccncc5)no4)c3C)c(C)o2)c1 — higher, 1070 s
- COc1nn(C)cc1C(=O)N1CCCC(COCc2ccccc2)C1 (configuration not stated) — lower, 742 s
- COc1ccc(C(=O)Nc2ccc3nc(N4CCN(C5CCCCC5)CC4)cc(C(=O)O)c3c2)cc1 — lower, 614 s
- COc1cccc(-n2cc(C(=O)OCCc3ccccn3)c3ccccc3c2=O)c1 — lower, 714 s
- COc1ncccc1CNC(=O)Cc1ccsc1 — lower, 610 s
- COCCN1CC2(CCN(S(=O)(=O)c3ccc(C)c(Cl)c3)CC2)C1c1ccccc1 (configuration not stated) — lower, 765 s
- COC(=O)c1ccccc1S(=O)(=O)N1CCc2c(c(-c3nnc(-c4ccccc4)o3)nn2C)C1 — lower, 907 s
- Cc1ccccc1-c1ccc(N2CCC(C(=O)NCc3ccco3)CC2)nn1 — lower, 605 s
- Cc1sc2ccn(CC(C)C)c(=O)c2c1C(=O)NCc1cc(F)ccc1F — higher, 1040 s
- Cc1cc(-c2nnc(-c3ccc(F)cc3)o2)c(C)n1CC(=O)Nc1ccc2c(c1)OCCO2 — the same, 916 s
- COCCn1cc2c3c(cccc31)CN(C(=O)NCc1ccc(OC)cc1)CC2 — lower, 822 s
- CC(=O)c1ccc(NC(=O)Cn2cccc2-c2nc(-c3ccc4c(c3)OCO4)no2)cc1 — higher, 923 s
- CCCCNC(=O)c1ccc2c(c1)N(C)C(=O)C1CCCCN21 (configuration not stated) — lower, 813 s
- Clc1ccc(Cl)c(-c2ccc(CNCC3CCNCC3)o2)c1 — lower, 574 s
- Cc1nc2ccc(N)nc2nc1C — lower, 594 s
- COc1ccc(Cl)cc1NC(=O)N1CCCC(C)(C(=O)NCc2ccc(F)cc2)C1 (configuration not stated) — higher, 1020 s
- COc1ccc(CNC(=O)CN2CCN(Cc3ccc(F)cc3)C2=O)c(OC)c1 — lower, 793 s
- O=C(Nc1ccc2c(c1)OCCO2)N1CCCC1c1nc(-c2ccc(F)cc2F)no1 (configuration not stated) — lower, 882 s
- CCc1ccc(C(=O)N2CCC3(C2)C(=O)N(C)c2ccccc23)cc1 (configuration not stated) — lower, 861 s
- O=C(Nc1c(-c2ccc(F)cc2)nc2ccccn12)c1cccc(F)c1 — lower, 674 s
- CCn1ncn2cc(S(=O)(=O)Nc3cccc(C)c3)cc2c1=O — lower, 849 s
- CN1C(=O)c2cc(S(=O)(=O)Nc3ccc(F)cc3)ccc2Oc2cccnc21 — lower, 906 s
- CCOC(=O)c1c(NC(=O)CN2CCN(c3ncccn3)CC2)sc2c1CCC2 — higher, 1080 s
- CC(C)(C)c1ccc2c(c1)OCC(=O)N2Cc1nc(-c2ccc3c(c2)OCO3)no1 — higher, 1200 s
- O=C(CCCn1c(=O)c2cccn2c2ccc(F)cc21)NCCCN1CCCCCC1 — lower, 645 s
- Cc1ccc2oc(C(=O)NCCc3cccs3)cc2n1 — lower, 640 s
- COCCN1C(=O)c2ccccc2C(C(=O)Nc2nc(C)c(C)s2)C12CCCC2 (configuration not stated) — lower, 842 s
- COC(=O)c1c(NCCc2ccccc2)c2cc(F)ccc2[nH]c1=O — lower, 791 s
- CCCNC(=O)c1cc(=O)[nH]c2c(C)cccc12 — lower, 647 s
- CCCNC(=O)c1csc(C(=O)NCC)n1 — lower, 670 s
- Cc1ncsc1CN1CCC(Oc2ccccc2-c2nc(C3CC3)no2)C1 (configuration not stated) — lower, 653 s
- CC(C)C(=O)Nc1nc(-c2ccc3c(c2)N(C)C(=O)C(C)O3)cs1 (configuration not stated) — lower, 822 s
- Cc1nnc(-c2cc3ccccc3n2Cc2ccccc2Cl)o1 — higher, 1100 s
- O=C(CN1CCN(Cc2ccccc2F)C1=O)N1CCN(c2ccccc2)CC1 — lower, 778 s
- Cc1cc(S(=O)(=O)N2C[C@@H](F)C[C@H]2C(=O)N2CCCCC2)ccc1Cl — lower, 885 s
- O=C(Cc1cccc(Cl)c1)N1CC2CN(S(=O)(=O)c3cccc(F)c3)CC(C1)O2 — lower, 900 s
- CCCCOC(=O)c1ccc(NC(=O)c2c(O)c3cccc4c3n(c2=O)CC4)cc1 — higher, 1070 s
- O=C([C@@H]1C[C@H](F)CN1C(=O)c1ccccc1)N1CCCCC1 — lower, 668 s
- CCOc1ccccc1NC(=O)Cn1nc(N2CCC(C)CC2)c2ccccc2c1=O — higher, 1290 s
- Cc1nn(Cc2ccc(C(=O)N3CCN(c4ccccn4)CC3)cc2)c(C)c1S(=O)(=O)N(C)C — lower, 606 s
- CS(=O)(=O)N1CCC(OC2CCN(C(=O)Nc3cccc(F)c3)CC2)CC1 — lower, 720 s
- CC(C)n1cnc(S(=O)(=O)N2CCC(C(=O)NCc3ccc(N(C)C)cc3)CC2)c1 — lower, 589 s
- CN(CC1CCOCC1)C(=O)NCc1cccc(F)c1 — lower, 684 s
- O=C(NCCC1=CCCCC1)c1c(OCC2CC2)cc(=O)n2c1CCCCC2 — lower, 887 s
